In patent publication US20110124842A1 (priority 2003, published 2011):

Tests used:
[1] = test system: HIV-1 JR-CSF; type: cell-based; details: JRCSF; peptide at 30 μg/ml; FIG. 49
Method: FIG. 49 is a bar graph showing the ability of peptide […]-NH2 (SEQ ID NO: 8) to block neutralization of HIV-1 by 4E10. Replication competent HIV-1 (SF 162 and JR-CSF), produced in human PBMCs, were assayed for neutralization by 4E10 (100 μg/ml) in TZM-b1 cells, in the presence (white bars) or absence (black bars) of an excess of peptide.
To further investigate the interaction of peptide analogs and 4E10, the inhibitory effect of the best analogs on neutralization by 4E10 was assessed. Neutralization assays were performed in two different formats. In the first, replication competent HIV-1SF162 was assayed for neutralization using TZM-b1 cells as indicator cells (Wei, X., 2002). Alternatively, a pseudotype assay was used in which recombinant HIV-1JR-CSF virions, competent for a single round of infection, were generated using the luciferase reporter plasmid pNL4-3.Luc.R-E-, as described previously (Connor, R. I., 1995; Zwick, M. B., 2003), and the pseudovirus assayed for neutralization using U87.CD4.CCR5 cells as target cells (Bjorndal, A., 1997). In all cases, the competitor peptide ([…]-NH2; SEQ ID NO: 8) and IgG 4E10 were pre-incubated for 30 minutes at 37° C. […] The degree of virus neutralization was determined as a percentage reduction of viral infectivity against an Ab-free control. […]

[2] = test system: HIV-1JR-FL; experiment: Peptide effect on neutralization by antibodies and sera, pseudotyped virus, U87.CD4.CCR5 cells; type: cell-based; details: FIG. 50
Method: FIG. 50 represents graphs showing the effect of peptide […]-NH2 (SEQ ID NO: 8) on neutralization of HIV-1 by polyclonal antibodies and sera. HIV-1JR-FL, pseudotyped using the pNL4-3.Luc reporter plasmid, was assayed for neutralization using pooled polyclonal IgG from HIV-1 seropositive individuals (HIVIG), broadly neutralizing serum from the FDA2 individual and normal human serum spiked with 4E10 at 200 μg/ml in the undiluted serum. Neutralization assays were performed using U87.CD4.CCR5 cells as target cells, in the presence (open symbols) or absence (closed symbols) of peptide […]-NH2 (SEQ ID NO: 8). Note that the zero point in serum dilution corresponds to only 30 μg/ml 94-1 being present.
To further investigate the interaction of peptide analogs and 4E10, the inhibitory effect of the best analogs on neutralization by 4E10 was assessed. Neutralization assays were performed in two different formats. In the first, replication competent HIV-1SF162 was assayed for neutralization using TZM-b1 cells as indicator cells (Wei, X., 2002). Alternatively, a pseudotype assay was used in which recombinant HIV-1JR-CSF virions, competent for a single round of infection, were generated using the luciferase reporter plasmid pNL4-3.Luc.R-E-, as described previously (Connor, R. I., 1995; Zwick, M. B., 2003), and the pseudovirus assayed for neutralization using U87.CD4.CCR5 cells as target cells (Bjorndal, A., 1997). In all cases, the competitor peptide ([…]-NH2; SEQ ID NO: 8) and IgG 4E10 were pre-incubated for 30 minutes at 37° C. (60 μg/ml), then the mixture was added (1:1 by volume) to HIV-1, and the resulting mixture incubated for a further hour at 37° C. The mixture of peptide, 4E10, and HIV-1 was then added (1:1 by volume) to the target cells, and the assay developed using luciferase reagent (Promega) following 48-72 hour incubation at 37° C. The degree of virus neutralization was determined as a percentage reduction of viral infectivity against an Ab-free control. All experiments were performed in triplicate and repeated at least twice with similar results.

[3] = Circular dichroism spectroscopy of free peptides in solution (helicity); type: physicochemical; details: FIG. 48
Method: To determine whether the imposed constraints increased the helicity of the peptides, each one was analyzed in solution using circular dichroism (CD) spectroscopy (FIG. 48). An Aviv spectropolarimeter Model 203-02 was used, with cells of 0.1 cm in length, a wavelength step of 0.5 nm and a bandwidth of 1.0 nm. One to three scans were reported. The exact peptide concentrations were determined by UV measurements at 280 nm on a Gison UV detector, model 116.

Sequence: NWFDITNWLWYIKKKK [Peptide 94-1, NWFDITNWLWYIKKKK-NH2]
- block of neutralization by 4E10 [1]: could block the neutralization
- block of neutralization by normal sera spiked with 4E10 [2]: blocks neutralization
- block of neutralization by the reference sera FDA2 [2]: does not block neutralization
- block of neutralization by polyclonal IgG from HIV-1 infected donors ([2]; HIVIG): does not block neutralization
- helicity in solution by CD [3]: more helical than 84-1
